Assay results from publication PMC8129719 (CPT: Pharmacometrics & Systems Pharmacology, 2021).
Several values for one entry are separate records, joined by “and”; a condition that tells them apart may be missing. Equal entries are not always repeated. Structures can show the parent of a compound that is named as a salt. Where two headings read alike, the source gives them in different places.

Assays:
[1] = probenecid 500 mg 4 times a day; ref Willemin et al. (accepted for publication); cited from earlier work
[2] = type: in vivo, human; conditions: for CL renal: female, human, plasma and urine, oral; for contribution of renal elimination to total clearance: from model CLr and CLnr; for CLr, IIV (SE%) / k syn, IIV (SE%): interindividual variability; for CLnr, population estimate (SE%): nonrenal clearance of biomarker; for V, population estimate (SE%): volume of distribution of biomarker; for k syn, population estimate (SE%): zero-order synthesis rate
[3] = probenecid 1000 mg single dose, 14 healthy volunteers, digitized data; cited from earlier work
[4] = Population PK model of probenecid plasma data; type: in vivo, human; conditions: for CL, IIV (SE%) / V, IIV (SE%): interindividual variability

CL renal [2]	contribution of renal elimination to total clearance [2]	CLr, IIV (SE%) [2]	k syn, IIV (SE%) [2]	CLr, IOV (SE%) ([2]; interoccasion variability)	CLnr, population estimate (SE%) [2]	V, population estimate (SE%) [2]	k syn, population estimate (SE%) [2]	k syn, IOV (SE%) ([2]; interoccasion variability between the two phases)	ka, population estimate (SE%) ([4]; absorption rate constant)	CL, IIV (SE%) [4]	V, IIV (SE%) [4]	CL, IIV (SE%) ([4]; listed as probenecid)	V, IIV (SE%) ([4]; listed as probenecid)	V, population estimate (SE%) ([4]; probenecid one-compartment model)	Structure (SMILES)	fold change of plasma AUC0-24 h following probenecid [1]	mean plasma AUC0-tlast ratio, observed [3]
–	–	–	–	–	–	–	–	–	–	–	–	–	–	–	C[C@H](CCC(=O)NCC(=O)O)[C@H]1CC[C@H]2[C@@H]3[C@H](O)C[C@@H]4C[C@H](OS(=O)(=O)O)CC[C@]4(C)[C@H]3CC[C@]12C [GCDCA-S, glycochenodeoxycholate sulfate]	1.9 fold	–
340 mL/min	94%	23 (26) %	27 (19) %	5 (48) %	1.29 (69) L/h	105 (35) L	212 (16) µg/h	–	–	–	–	–	–	–	COc1cc(CC(=O)O)ccc1O [HVA, homovanillic acid]	2.2 fold	–
253 mL/min	82%	27% and 27 (15) %	32% and 32 (34) %	–	3.23 (41) L/h	9.34 (56) L	58.6 (26) µg/h	22 (57) %	–	–	–	–	–	–	Cc1ncc(CO)c(C(=O)O)c1O [PDA, Pyridoxic acid]	3.9 fold	1.95
–	–	–	–	–	–	–	–	–	0.74 (45) /h	23 (23) %	40 (29) %	23%	40%	15 (22) L	CCCN(CCC)S(=O)(=O)c1ccc(C(=O)O)cc1 [Probenecid, probenecid]	–	–
